Measured values reported in paper PMC10949855 (Journal of veterinary pharmacology and therapeutics, 2022).

System: healthy dogs
Assay: Sedation score
Type: in vivo, dogs (Beagles)
[1] = IV CRI 0.2 mg/kg + 0.2 mg/kg/hr for 8 hr, 0.5 hr
[2] = IV CRI 0.2 mg/kg + 0.2 mg/kg/hr for 8 hr, 1 hr
[3] = IV CRI 0.2 mg/kg + 0.2 mg/kg/hr for 8 hr, 1.5 hr
[4] = IV CRI 0.2 mg/kg + 0.2 mg/kg/hr for 8 hr, 2 hr
[5] = IV CRI 0.2 mg/kg + 0.2 mg/kg/hr for 8 hr, 3 hr
[6] = IV CRI 0.2 mg/kg + 0.2 mg/kg/hr for 8 hr, 4 hr
[7] = IV CRI 0.2 mg/kg + 0.2 mg/kg/hr for 8 hr, 5 hr
[8] = IV CRI 0.2 mg/kg + 0.2 mg/kg/hr for 8 hr, 6 hr
[9] = IV CRI 0.2 mg/kg + 0.2 mg/kg/hr for 8 hr, 7 hr
[10] = IV CRI 0.2 mg/kg + 0.2 mg/kg/hr for 8 hr, 8 hr
[11] = IV CRI 0.2 mg/kg + 0.2 mg/kg/hr for 8 hr, 9 hr
[12] = IV CRI 0.2 mg/kg + 0.2 mg/kg/hr for 8 hr, 10 hr
[13] = IV CRI 0.2 mg/kg + 0.2 mg/kg/hr for 8 hr, 11 hr
[14] = IV CRI 0.2 mg/kg + 0.2 mg/kg/hr for 8 hr, 12 hr
[15] = IV CRI 0.2 mg/kg + 0.2 mg/kg/hr for 8 hr, 24 hr

Oc1ccc2c(c1)[C@@]13CCCC[C@@]1(O)[C@@H](C2)N(CC1CCC1)CC3 [butorphanol]
5: number of dogs with sedation score 1 [11] | number of dogs with sedation score 1 [12] | number of dogs with sedation score 0 [15] | number of dogs with sedation score 1 (IV bolus 0.4 mg/kg, 1.5 hr) | number of dogs with sedation score 1 (IV bolus 0.4 mg/kg, 2 hr) | number of dogs with sedation score 1 (IV bolus 0.4 mg/kg, 4 hr) | number of dogs with sedation score 1 (IV bolus 0.4 mg/kg, 5 hr) | number of dogs with sedation score 0 (IV bolus 0.4 mg/kg, 6 hr) | number of dogs with sedation score 0 (IV bolus 0.4 mg/kg, 7 hr)
4: number of dogs with sedation score 1 [6] | number of dogs with sedation score 1 [7] | number of dogs with sedation score 1 [8] | number of dogs with sedation score 1 [9] | number of dogs with sedation score 0 [14] | number of dogs with sedation score 0 (IV bolus 0.4 mg/kg, 24 hr)
1.5 to 2 h: time with moderate sedation or higher (sedation score >1) in at least one dog (IV bolus 0.4 mg/kg IV)
6: number of dogs with sedation score 1 (IV bolus 0.4 mg/kg, 0.5 hr) | number of dogs with sedation score 1 (IV bolus 0.4 mg/kg, 1 hr) | number of dogs with sedation score 1 (IV bolus 0.4 mg/kg, 3 hr) | number of dogs with sedation score 0 (IV bolus 0.4 mg/kg, 8 hr) | number of dogs with sedation score 0 (IV bolus 0.4 mg/kg, 9 hr) | number of dogs with sedation score 0 (IV bolus 0.4 mg/kg, 10 hr) | number of dogs with sedation score 0 (IV bolus 0.4 mg/kg, 11 hr) | number of dogs with sedation score 0 (IV bolus 0.4 mg/kg, 12 hr)
3: number of dogs with sedation score 1 [1] | number of dogs with sedation score 1 [2] | number of dogs with sedation score 1 [3] | number of dogs with sedation score 1 [4] | number of dogs with sedation score 1 [5] | number of dogs with sedation score 1 [10] | number of dogs with sedation score 1 [13]
2: number of dogs with sedation score 2 [1] | number of dogs with sedation score 2 [4] | number of dogs with sedation score 2 [5] | number of dogs with sedation score 2 [10] | number of dogs with sedation score 0 [13]
0: number of dogs with sedation score 0 [1] | number of dogs with sedation score 3 [1] | number of dogs with sedation score 0 [2] | number of dogs with sedation score 0 [3] | number of dogs with sedation score 0 [4] | number of dogs with sedation score 3 [4] | number of dogs with sedation score 0 [5] | number of dogs with sedation score 3 [5] | number of dogs with sedation score 0 [6] | number of dogs with sedation score 3 [6] | number of dogs with sedation score 0 [7] | number of dogs with sedation score 3 [7] | number of dogs with sedation score 0 [8] | number of dogs with sedation score 3 [8] | number of dogs with sedation score 0 [9] | number of dogs with sedation score 3 [9] | number of dogs with sedation score 0 [10] | number of dogs with sedation score 3 [10] | number of dogs with sedation score 0 [11] | number of dogs with sedation score 2 [11] | number of dogs with sedation score 3 [11] | number of dogs with sedation score 0 [12] | number of dogs with sedation score 2 [12] | number of dogs with sedation score 3 [12] | number of dogs with sedation score 2 [13] | number of dogs with sedation score 3 [13] | number of dogs with sedation score 2 [14] | number of dogs with sedation score 3 [14] | number of dogs with sedation score 1 [15] | number of dogs with sedation score 2 [15] | number of dogs with sedation score 3 [15] | number of dogs with sedation score 0 (IV bolus 0.4 mg/kg, 0.5 hr) | number of dogs with sedation score 2 (IV bolus 0.4 mg/kg, 0.5 hr) | number of dogs with sedation score 3 (IV bolus 0.4 mg/kg, 0.5 hr) | number of dogs with sedation score 0 (IV bolus 0.4 mg/kg, 1 hr) | number of dogs with sedation score 2 (IV bolus 0.4 mg/kg, 1 hr) | number of dogs with sedation score 3 (IV bolus 0.4 mg/kg, 1 hr) | number of dogs with sedation score 0 (IV bolus 0.4 mg/kg, 1.5 hr) | number of dogs with sedation score 3 (IV bolus 0.4 mg/kg, 1.5 hr) | number of dogs with sedation score 0 (IV bolus 0.4 mg/kg, 2 hr) | number of dogs with sedation score 3 (IV bolus 0.4 mg/kg, 2 hr) | number of dogs with sedation score 0 (IV bolus 0.4 mg/kg, 3 hr) | number of dogs with sedation score 2 (IV bolus 0.4 mg/kg, 3 hr) | number of dogs with sedation score 3 (IV bolus 0.4 mg/kg, 3 hr) | number of dogs with sedation score 2 (IV bolus 0.4 mg/kg, 4 hr) | number of dogs with sedation score 3 (IV bolus 0.4 mg/kg, 4 hr) | number of dogs with sedation score 2 (IV bolus 0.4 mg/kg, 5 hr) | number of dogs with sedation score 3 (IV bolus 0.4 mg/kg, 5 hr) | number of dogs with sedation score 2 (IV bolus 0.4 mg/kg, 6 hr) | number of dogs with sedation score 3 (IV bolus 0.4 mg/kg, 6 hr) | number of dogs with sedation score 2 (IV bolus 0.4 mg/kg, 7 hr) | number of dogs with sedation score 3 (IV bolus 0.4 mg/kg, 7 hr) | number of dogs with sedation score 1 (IV bolus 0.4 mg/kg, 8 hr) | number of dogs with sedation score 2 (IV bolus 0.4 mg/kg, 8 hr) | number of dogs with sedation score 3 (IV bolus 0.4 mg/kg, 8 hr) | number of dogs with sedation score 1 (IV bolus 0.4 mg/kg, 9 hr) | number of dogs with sedation score 2 (IV bolus 0.4 mg/kg, 9 hr) | number of dogs with sedation score 3 (IV bolus 0.4 mg/kg, 9 hr) | number of dogs with sedation score 1 (IV bolus 0.4 mg/kg, 10 hr) | number of dogs with sedation score 2 (IV bolus 0.4 mg/kg, 10 hr) | number of dogs with sedation score 3 (IV bolus 0.4 mg/kg, 10 hr) | number of dogs with sedation score 1 (IV bolus 0.4 mg/kg, 11 hr) | number of dogs with sedation score 2 (IV bolus 0.4 mg/kg, 11 hr) | number of dogs with sedation score 3 (IV bolus 0.4 mg/kg, 11 hr) | number of dogs with sedation score 1 (IV bolus 0.4 mg/kg, 12 hr) | number of dogs with sedation score 2 (IV bolus 0.4 mg/kg, 12 hr) | number of dogs with sedation score 3 (IV bolus 0.4 mg/kg, 12 hr) | number of dogs with sedation score 1 (IV bolus 0.4 mg/kg, 24 hr) | number of dogs with sedation score 2 (IV bolus 0.4 mg/kg, 24 hr) | number of dogs with sedation score 3 (IV bolus 0.4 mg/kg, 24 hr)
1: number of dogs with sedation score 2 [2] | number of dogs with sedation score 3 [2] | number of dogs with sedation score 2 [3] | number of dogs with sedation score 3 [3] | number of dogs with sedation score 2 [6] | number of dogs with sedation score 2 [7] | number of dogs with sedation score 2 [8] | number of dogs with sedation score 2 [9] | number of dogs with sedation score 1 [14] | number of dogs with sedation score 2 (IV bolus 0.4 mg/kg, 1.5 hr) | number of dogs with sedation score 2 (IV bolus 0.4 mg/kg, 2 hr) | number of dogs with sedation score 0 (IV bolus 0.4 mg/kg, 4 hr) | number of dogs with sedation score 0 (IV bolus 0.4 mg/kg, 5 hr) | number of dogs with sedation score 1 (IV bolus 0.4 mg/kg, 6 hr) | number of dogs with sedation score 1 (IV bolus 0.4 mg/kg, 7 hr)
